Assay results: ChEMBL document CHEMBL4346687, “Design, synthesis and biological evaluation of novel uracil derivatives bearing 1, 2, 3-triazole moiety as thymidylate synthase (TS) inhibitors and as potential antitumor drugs” (Eur J Med Chem, 2019)
Activity calls are given as the source filed them. The rule behind the calls is not given here.

Key:
[1] = Cytotoxicity against human HPAEpic cells assessed as reduction in cell viability after 24 hrs by MTT assay; assay type: cell-based; details: HPAEpic cells
[2] = Cytotoxicity against human IOSE-80 cells assessed as reduction in cell viability after 24 hrs by MTT assay; assay type: cell-based; details: IOSE-80 cells
[3] = Cytotoxicity against human GES-1 cells assessed as reduction in cell viability after 24 hrs by MTT assay; assay type: cell-based, GES1; details: GES-1 cells
[4] = Cytotoxicity against human L02 cells assessed as reduction in cell viability after 24 hrs by MTT assay; assay type: cell-based; details: L02 cells
A549 [5] = assay: Antiproliferative activity against human A549 cells assessed as reduction in cell viability at 0.625 uM after 24 hrs by MTT assay; assay type: functional; details: A549, 24 h
A549 [6] = assay: Antiproliferative activity against human A549 cells assessed as reduction in cell viability at 1.25 uM after 24 hrs by MTT assay; assay type: functional; details: A549, 24 h
A549 [7] = assay: Antiproliferative activity against human A549 cells assessed as reduction in cell viability at 5 uM after 24 hrs by MTT assay; assay type: functional; details: A549, 24 h
A549 [8] = assay: Antiproliferative activity against human A549 cells assessed as reduction in cell viability at 10 uM after 24 hrs by MTT assay; assay type: functional; details: A549, 24 h
A549 [9] = assay: Antiproliferative activity against human A549 cells assessed as reduction in cell viability at 20 uM after 24 hrs by MTT assay; assay type: functional; details: A549, 24 h
A549 [10] = assay: Cell cycle arrest in human A549 cells assessed as increase in G0/G1 phase at 0.5 to 1.5 uM after 24 hrs by propidium iodide staining based flow cytometric analysis; assay type: functional
A549 [11] = assay: Cell cycle arrest in human A549 cells assessed as decrease in S phase at 0.5 to 1.5 uM after 24 hrs by propidium iodide staining based flow cytometric analysis; assay type: functional
A549 [12] = assay: Cell cycle arrest in human A549 cells assessed as decrease in G2/M phase at 0.5 to 1.5 uM after 24 hrs by propidium iodide staining based flow cytometric analysis; assay type: functional
A549 [13] = assay: Cell cycle arrest in human A549 cells assessed as decrease in Cyclin D protein expression at 0.5 to 1.5 uM after 24 hrs by Western blot analysis; assay type: functional, cell-based
A549 [14] = assay: Cell cycle arrest in human A549 cells assessed as decrease in Cyclin E protein expression at 0.5 to 1.5 uM after 24 hrs by Western blot analysis; assay type: functional, cell-based
A549 [15] = assay: Induction of apoptosis in human A549 cells assessed as viable cells at 0.5 uM after 24 hrs by Annexin V-FITC/propidium iodide staining based flow cytometric analysis (reference value: 98.2%); assay type: functional; details: A549, 24 h, read-out: Activity
A549 [16] = assay: Induction of apoptosis in human A549 cells assessed as early apoptotic cells at 0.5 uM after 24 hrs by Annexin V-FITC/propidium iodide staining based flow cytometric analysis (reference value: 0.6%); assay type: functional
A549 [17] = assay: Induction of apoptosis in human A549 cells assessed as late apoptotic cells at 0.5 uM after 24 hrs by Annexin V-FITC/propidium iodide staining based flow cytometric analysis (reference value: 1.1%); assay type: functional
A549 [18] = assay: Induction of apoptosis in human A549 cells assessed as necrotic cells at 0.5 uM after 24 hrs by Annexin V-FITC/propidium iodide staining based flow cytometric analysis (reference value: 0.1%); assay type: functional
A549 [19] = assay: Induction of apoptosis in human A549 cells assessed as viable cells at 1 uM after 24 hrs by Annexin V-FITC/propidium iodide staining based flow cytometric analysis (reference value: 98.2%); assay type: functional; details: A549, 24 h, read-out: Activity
A549 [20] = assay: Induction of apoptosis in human A549 cells assessed as early apoptotic cells at 1 uM after 24 hrs by Annexin V-FITC/propidium iodide staining based flow cytometric analysis (reference value: 0.6%); assay type: functional
A549 [21] = assay: Induction of apoptosis in human A549 cells assessed as late apoptotic cells at 1 uM after 24 hrs by Annexin V-FITC/propidium iodide staining based flow cytometric analysis (reference value: 1.1%); assay type: functional
A549 [22] = assay: Induction of apoptosis in human A549 cells assessed as necrotic cells at 1 uM after 24 hrs by Annexin V-FITC/propidium iodide staining based flow cytometric analysis (reference value: 0.1%); assay type: functional
A549 [23] = assay: Induction of apoptosis in human A549 cells assessed as viable cells at 1.5 uM after 24 hrs by Annexin V-FITC/propidium iodide staining based flow cytometric analysis (reference value: 98.2%); assay type: functional; details: A549, 24 h, read-out: Activity
A549 [24] = assay: Induction of apoptosis in human A549 cells assessed as early apoptotic cells at 1.5 uM after 24 hrs by Annexin V-FITC/propidium iodide staining based flow cytometric analysis (reference value: 0.6%); assay type: functional
A549 [25] = assay: Induction of apoptosis in human A549 cells assessed as late apoptotic cells at 1.5 uM after 24 hrs by Annexin V-FITC/propidium iodide staining based flow cytometric analysis (reference value: 1.1%); assay type: functional
A549 [26] = assay: Induction of apoptosis in human A549 cells assessed as necrotic cells at 1.5 uM after 24 hrs by Annexin V-FITC/propidium iodide staining based flow cytometric analysis (reference value: 0.1%); assay type: functional
A549 [27] = assay: Induction of apoptosis in human A549 cells assessed as up regulation of Bax protein expression at 0.5 to 1.5 uM after 24 hrs by Western blot analysis; assay type: functional, cell-based
A549 [28] = assay: Induction of apoptosis in human A549 cells assessed as down regulation of Bcl-2 protein expression at 0.5 to 1.5 uM after 24 hrs by Western blot analysis; assay type: functional, cell-based
A549 [29] = assay: Induction of apoptosis in human A549 cells assessed as activation of caspase-3 protein level at 0.5 to 1.5 uM after 24 hrs by Western blot analysis; assay type: functional, cell-based
A549 [30] = assay: Induction of apoptosis in human A549 cells assessed as increase in cleaved caspase-3 protein level at 0.5 to 1.5 uM after 24 hrs by Western blot analysis; assay type: functional, cell-based
A549 [31] = assay: Induction of apoptosis in human A549 cells assessed as decrease in ratio of Bcl-2/Bax at 0.5 to 1.5 uM after 24 hrs by Western blot analysis; assay type: functional, cell-based
A549 [32] = assay: Induction of early apoptosis in human A549 cells after 24 hrs by Annexin V-FITC/propidium iodide staining based flow cytometric analysis; assay type: functional, cell-based
A549 [33] = assay: Induction of late apoptosis in human A549 cells after 24 hrs by Annexin V-FITC/propidium iodide staining based flow cytometric analysis; assay type: functional, cell-based
A549 [34] = assay: cells; details: Homo sapiens, A549, 24 h
Description: Antiproliferative activity against human A549 cells assessed as reduction in cell viability after 24 hrs by MTT assay

OVCAR-3 = assay: cells; details: Homo sapiens, OVCAR-3, 24 h
Description: Antiproliferative activity against human OVCAR3 cells assessed as reduction in cell viability after 24 hrs by MTT assay

SGC-7901 = assay: cells; details: Homo sapiens, SGC-7901, 24 h
Description: Antiproliferative activity against human SGC7901 cells assessed as reduction in cell viability after 24 hrs by MTT assay

HepG2 = assay: cells; details: Homo sapiens, HepG2, 24 h
Description: Antiproliferative activity against human HepG2 cells assessed as reduction in cell viability after 24 hrs by MTT assay

O=c1[nH]cc(S(=O)(=O)Nc2ccccc2-c2cn(-c3ccc(Cl)cc3)nn2)c(=O)[nH]1
CC50 at 24 h [1]: 20.4 µM
CC50 at 24 h [2]: 16.5 µM
CC50 at 24 h [3]: 26.7 µM
CC50 at 24 h [4]: 16.8 µM
inhibition at 0.625 µM (A549 [5]): 32%
inhibition at 1.25 µM (A549 [6]): 55.5%
inhibition at 5 µM (A549 [7]): 75.5%
inhibition at 10 µM (A549 [8]): 77.3%
inhibition at 20 µM (A549 [9]): 80.2%
Activity (A549 [10]): Dose-dependent effect
Activity (A549 [11]): Dose-dependent effect
Activity (A549 [12]): Dose-dependent effect
Activity (A549 [13]): Dose-dependent effect
Activity (A549 [14]): Dose-dependent effect
viability at 0.5 µM (A549 [15]): 96.5%
Activity (A549 [16]): 1.3%
Activity (A549 [17]): 2.1%
Activity (A549 [18]): 0.1%
viability at 1 µM (A549 [19]): 89.7%
Activity (A549 [20]): 3.5%
Activity (A549 [21]): 5.6%
Activity (A549 [22]): 1.2%
viability at 1.5 µM (A549 [23]): 84.2%
Activity (A549 [24]): 4.1%
Activity (A549 [25]): 7.1%
Activity (A549 [26]): 4.5%
Activity (A549 [27]): Active
Activity (A549 [28]): Active
Activity (A549 [29]): Active
Activity (A549 [30]): Active
Activity (A549 [31]): Active
Activity (A549 [32]): Dose-dependent effect
Activity (A549 [33]): Dose-dependent effect
IC50 (A549 [34]): 1.18 µM
IC50 (OVCAR-3): 1.75 µM
IC50 (SGC-7901): 2.7 µM
IC50 (HepG2): 1.84 µM
